What was measured:
green foxtail = assay: Test Example 5: herbicidal effect by foliage application, plastic box (Table 20, symbol G); assay type: in vivo, green foxtail (Setaria viridis); conditions: foliage application, 320 g/ha
Method in brief: (§1)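 Post-emergence foliar test in sterilized diluvial soil. Compound applied as water-diluted emulsion at a predetermined rate to 14-day-old plants; evaluation at three weeks.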

barnyard grass [1] = assay: Test Example 3: herbicidal effect by foliage application, Wagner pot (Table 18, symbol H); assay type: in vivo, barnyard grass (Echinochloa crus-galli)
Method in brief: (§2)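 Plants were sown in alluvial soil held under 0.1–0.5 cm standing water and grown 14 days in a greenhouse at 25–30 °C. An emulsifiable formulation, water-diluted to the set dose, was then sprayed onto the foliage, and effects were scored three weeks later using previously defined criteria.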

barnyard grass [2] = assay: Test Example 5: herbicidal effect by foliage application, plastic box (Table 20, symbol H); assay type: in vivo, barnyard grass (Echinochloa crus-galli); conditions: foliage application, 320 g/ha
Method in brief: as §1

Chinese sprangletop = assay: Test Example 3: herbicidal effect by foliage application, Wagner pot (Table 18, symbol D); assay type: in vivo, chinese sprangletop (Leptochloa chinensis)
Method in brief: as §2

lambsquarters = assay: Test Example 5: herbicidal effect by foliage application, plastic box (Table 20, symbol O); assay type: in vivo, lambsquarters (Chenopodium album); conditions: foliage application, 320 g/ha
Method in brief: as §1

velvetleaf = assay: Test Example 5: herbicidal effect by foliage application, plastic box (Table 20, symbol M); assay type: in vivo, velvetleaf (Abutilon theophrasti); conditions: foliage application, 320 g/ha
Method in brief: as §1

persian speedwell = assay: Test Example 5: herbicidal effect by foliage application, plastic box (Table 20, symbol R); assay type: in vivo, Persian speedwell (Veronica persica); conditions: foliage application, 320 g/ha
Method in brief: as §1

southern crabgrass = assay: Test Example 5: herbicidal effect by foliage application, plastic box (Table 20, symbol F); assay type: in vivo, southern crabgrass (Digitaria ciliaris); conditions: foliage application, 320 g/ha
Method in brief: as §1

late watergrass [3] = assay: Test Example 2: herbicidal activity, application during weed generation under submerged conditions (Table 17, symbol A); assay type: in vivo, late watergrass (Echinochloa oryzicola); conditions: AAH 320 g/ha; application during weed generation, submerged conditions
Method in brief: (§3)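 Effect on each weed is rated three weeks post-treatment, using the same scoring criteria as the preceding test. Plants grow from mixed-sown seed in flooded alluvial soil (4 cm water) at 25° C. to 30° C., and are treated at one to two leaves with diluted emulsion dropped onto the water.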

false cleavers = assay: Test Example 5: herbicidal effect by foliage application, plastic box (Table 20, symbol Q); assay type: in vivo, false cleavers (Galium spurium); conditions: foliage application, 320 g/ha
Method in brief: as §1

rice flat sedge = assay: Test Example 3: herbicidal effect by foliage application, Wagner pot (Table 18, symbol E); assay type: in vivo, rice flat sedge (Cyperus iria)
Method in brief: as §2

Japanese bulrush [4] = assay: Test Example 2: herbicidal activity, application during weed generation under submerged conditions (Table 17, symbol B); assay type: in vivo, Japanese bulrush (Schoenoplectus juncoides); conditions: AAH 320 g/ha; application during weed generation, submerged conditions
Method in brief: as §3

oval-leafed pondweed [5] = assay: Test Example 2: herbicidal activity, application during weed generation under submerged conditions (Table 17, symbol C); assay type: in vivo, oval-leafed pondweed (Monochoria vaginalis); conditions: AAH 320 g/ha; application during weed generation, submerged conditions
Method in brief: as §3

Italian ryegrass = assay: Test Example 5: herbicidal effect by foliage application, plastic box (Table 20, symbol K); assay type: in vivo, Italian ryegrass (Lolium multiflorum); conditions: foliage application, 320 g/ha
Method in brief: as §1

redroot pigweed = assay: Test Example 5: herbicidal effect by foliage application, plastic box (Table 20, symbol N); assay type: in vivo, redroot pigweed (Amaranthus retroflexus); conditions: foliage application, 320 g/ha, evaluated three weeks after application
Method in brief: as §1

wild oat = assay: Test Example 5: herbicidal effect by foliage application, plastic box (Table 20, symbol I); assay type: in vivo, wild oat (Avena fatua); conditions: foliage application, 320 g/ha
Method in brief: as §1

windgrass = assay: Test Example 5: herbicidal effect by foliage application, plastic box (Table 20, symbol L); assay type: in vivo, windgrass (Apera spica-venti); conditions: foliage application, 320 g/ha, evaluated three weeks after application
Method in brief: as §1

blackgrass = assay: Test Example 5: herbicidal effect by foliage application, plastic box (Table 20, symbol J); assay type: in vivo, blackgrass (Alopecurus myosuroides); conditions: foliage application, 320 g/ha
Method in brief: as §1

chickweed = assay: Test Example 5: herbicidal effect by foliage application, plastic box (Table 20, symbol P); assay type: in vivo, common chickweed (Stellaria media); conditions: foliage application, 320 g/ha
Method in brief: as §1

late watergrass [6] = assay: Test Example 1: herbicidal activity, application before weed generation under submerged conditions (Table 16, symbol A); assay type: in vivo, late watergrass (Echinochloa oryzicola); conditions: amount of applied herbicide 320 g/ha
Method in brief: (§4)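 Alluvial soil was flooded to 4 cm depth, weed seeds were sown mixed and 2.5-leaf rice seedlings were transplanted. On sowing day, the compound's emulsion, diluted in water to a set dose, was applied to the water surface. Plants grew at 25–30 °C and were scored 0–5 after three weeks.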

Japanese bulrush [7] = assay: Test Example 1: herbicidal activity, application before weed generation under submerged conditions (Table 16, symbol B); assay type: in vivo, Japanese bulrush (Schoenoplectus juncoides); conditions: amount of applied herbicide 320 g/ha
Method in brief: as §4

oval-leafed pondweed [8] = assay: Test Example 1: herbicidal activity, application before weed generation under submerged conditions (Table 16, symbol C); assay type: in vivo, oval-leafed pondweed (Monochoria vaginalis); conditions: amount of applied herbicide 320 g/ha
Method in brief: as §4

[9] = evaluated three weeks after application
[10] = amount of applied herbicide 320 g/ha

Structure (SMILES): CCCC(=O)Oc1c(C)nn(C)c(=O)c1-c1c(-c2c(OC)cccc2OC)sc2ccc(Cl)cc12 [2-122]
- herbicidal effect on G: green foxtail (green foxtail; [9]): 0 (Herbicidal rate of 5% or less (almost no effect))
- herbicidal effect on H: barnyard grass (barnyard grass [1]; [10]): 2 (Herbicidal rate of 20% or more and less than 40%)
- herbicidal effect on H: barnyard grass (barnyard grass [2]; [9]): 0 (Herbicidal rate of 5% or less (almost no effect))
- herbicidal effect on D: Chinese sprangletop (Chinese sprangletop; [10]): 0 (Herbicidal rate of 5% or less (almost no effect))
- herbicidal effect on O: lambsquarters (lambsquarters; [9]): 0 (Herbicidal rate of 5% or less (almost no effect))
- herbicidal effect on M: velvetleaf (velvetleaf; [9]): 0 (Herbicidal rate of 5% or less (almost no effect))
- herbicidal effect on R: persian speedwell (persian speedwell; [9]): 1 (Herbicidal rate of 5% or more and less than 20%)
- herbicidal effect on F: southern crabgrass (southern crabgrass; [9]): 0 (Herbicidal rate of 5% or less (almost no effect))
- herbicidal effect rating, A: late watergrass (late watergrass [3]): 0 (Herbicidal rate of 5% or less (almost no effect))
- herbicidal effect on Q: false cleavers (false cleavers; [9]): 0 (Herbicidal rate of 5% or less (almost no effect))
- herbicidal effect on E: rice flat sedge (rice flat sedge; [10]): 0 (Herbicidal rate of 5% or less (almost no effect))
- herbicidal effect rating, B: Japanese bulrush (Japanese bulrush [4]): 0 (Herbicidal rate of 5% or less (almost no effect))
- herbicidal effect rating, C: oval-leafed pondweed (oval-leafed pondweed [5]): 2 (Herbicidal rate of 20% or more and less than 40%)
- herbicidal effect on K: Italian ryegrass (Italian ryegrass; [9]): 0 (Herbicidal rate of 5% or less (almost no effect))
- herbicidal effect on N: redroot pigweed (redroot pigweed): 0 (Herbicidal rate of 5% or less (almost no effect))
- herbicidal effect on I: wild oat (wild oat; [9]): 0 (Herbicidal rate of 5% or less (almost no effect))
- herbicidal effect on L: windgrass (windgrass): 0 (Herbicidal rate of 5% or less (almost no effect))
- herbicidal effect on J: blackgrass (blackgrass; [9]): 0 (Herbicidal rate of 5% or less (almost no effect))
- herbicidal effect on P: chickweed (chickweed; [9]): 3 (Herbicidal rate of 40% or more and less than 70%)

Structure (SMILES): CCCC(=O)Oc1c(C)nn(C)c(=O)c1-c1c(-c2ccc(F)cc2OC)sc2cc(C)ccc12 [3-056]
- G: green foxtail, herbicidal effect grade (green foxtail; three weeks after application): 4 (Herbicidal rate of 70% or more and less than 90%)
- Herbicidal effect, A: late watergrass (late watergrass [6]): 3 (Herbicidal rate of 40% or more and less than 70%)
- herbicidal effect on barnyard grass (H) (barnyard grass [1]; 320 g/ha): 3 (Herbicidal rate of 40% or more and less than 70%)
- H: barnyard grass, herbicidal effect grade (barnyard grass [2]; three weeks after application): 3 (Herbicidal rate of 40% or more and less than 70%)
- herbicidal effect on Chinese sprangletop (D) (Chinese sprangletop; 320 g/ha): 1 (Herbicidal rate of 5% or more and less than 20%)
- O: lambsquarters, herbicidal effect grade (lambsquarters; three weeks after application): 2 (Herbicidal rate of 20% or more and less than 40%)
- M: velvetleaf, herbicidal effect grade (velvetleaf; three weeks after application): 2 (Herbicidal rate of 20% or more and less than 40%)
- R: persian speedwell, herbicidal effect grade (persian speedwell; three weeks after application): 5 (Herbicidal rate of 90% or more (almost completely withered))
- F: southern crabgrass, herbicidal effect grade (southern crabgrass; three weeks after application): 3 (Herbicidal rate of 40% or more and less than 70%)
- Herbicidal effect, B: Japanese bulrush (Japanese bulrush [7]): 0 (Herbicidal rate of 5% or less (almost no effect))
- Herbicidal effect, C: oval-leafed pondweed (oval-leafed pondweed [8]): 0 (Herbicidal rate of 5% or less (almost no effect))
- herbicidal effect rating, A: late watergrass (late watergrass [3]): 2 (Herbicidal rate of 20% or more and less than 40%)
- Q: false cleavers, herbicidal effect grade (false cleavers; three weeks after application): 4 (Herbicidal rate of 70% or more and less than 90%)
- herbicidal effect on rice flat sedge (E) (rice flat sedge; 320 g/ha): 3 (Herbicidal rate of 40% or more and less than 70%)
- herbicidal effect rating, B: Japanese bulrush (Japanese bulrush [4]): 0 (Herbicidal rate of 5% or less (almost no effect))
- herbicidal effect rating, C: oval-leafed pondweed (oval-leafed pondweed [5]): 0 (Herbicidal rate of 5% or less (almost no effect))
- K: Italian ryegrass, herbicidal effect grade (Italian ryegrass; three weeks after application): 3 (Herbicidal rate of 40% or more and less than 70%)
- I: wild oat, herbicidal effect grade (wild oat; three weeks after application): 3 (Herbicidal rate of 40% or more and less than 70%)
- J: blackgrass, herbicidal effect grade (blackgrass; three weeks after application): 2 (Herbicidal rate of 20% or more and less than 40%)
- P: chickweed, herbicidal effect grade (chickweed; three weeks after application): 5 (Herbicidal rate of 90% or more (almost completely withered))

Reference: patent US20230085307A1, “PYRIDAZINONE COMPOUND AND HERBICIDE” (NISSAN CHEMICAL CORPORATION, priority 2019, published 2023)
